{"source": "paper PMC11034360", "about": "(RSC Advances, 2024)", "origin": "cited, not measured here", "tested_on": "H460, MDA-MB 468, MDA-MB-231 and glioblastoma (BT-33)", "conditions": "comparison drug for Au(III) complexes; ref 45c"}
{"smiles": "N.N.[Cl][Pt][Cl]", "note": "[cisplatin]", "values": [{"measurement": "IC50", "value": 4.16, "unit": "µM"}]}
